Experiments:
[1] = target: purified recombinant Plasmodium falciparum methylerythritol cytidyltransferase (PfIspD) enzyme (Plasmodium falciparum, UniProt Q8I273); experiment: biochemical; settings: nonlinear regression
Method: Compounds listed in Table 1 were tested for activity against purified recombinant Plasmodium falciparum methylerythritol cytidyltransferase (PfIspD) enzyme. […] Each compound was evaluated for enzymatic inhibition over several concentrations. Nonlinear regression analysis (GraphPad Prism) was used to determine the half-maximal inhibitory concentration (IC50) for each compound.

[2] = system: cultured Plasmodium falciparum parasite strain 3D7; experiment: Antimalarial efficacy, parasite growth inhibition by Sybr Green staining; assay type: cell-based; settings: P. falciparum strain 3D7
Method: Each compound was tested for the ability to inhibit growth of a standard cultured Plasmodium falciparum parasite strain 3D7. Parasite growth was monitored by staining with the DNA fluorophore Sybr Green, as previously described for the antimalarial fosmidomycin in Zhang et al., Biochemistry, (2011) 50(17), 3570-3577. Each compound was evaluated for antimalarial activity over several concentrations. Nonlinear regression analysis was used to determine the concentration of half-maximal antimalarial efficacy (EC50) for each compound.

MEP pathway = experiment: Metabolic profiling of inhibitor-treated malaria parasites (LC-MS/MS); assay type: cell-based; settings: parasite lines treated with compound, FIG. 3
Source text: A quantitative liquid chromatography-mass spectrometry method (LC-MS/MS) was developed to determine the cellular levels of metabolites in the MEP pathway. This method allows determination of whether the MEP pathway has been inhibited in malaria parasites treated with MEP pathway inhibitors of the present invention. This method has been previously used to validate the cellular metabolic effects of the known MEP pathway inhibitor fosmidomycin (Zhang et al., Biochemistry 2011).

purified recombinant Plasmodium falciparum methylerythritol cytidyltransferase (PfIspD) enzyme, sequence (Q8I273 entry or part of it): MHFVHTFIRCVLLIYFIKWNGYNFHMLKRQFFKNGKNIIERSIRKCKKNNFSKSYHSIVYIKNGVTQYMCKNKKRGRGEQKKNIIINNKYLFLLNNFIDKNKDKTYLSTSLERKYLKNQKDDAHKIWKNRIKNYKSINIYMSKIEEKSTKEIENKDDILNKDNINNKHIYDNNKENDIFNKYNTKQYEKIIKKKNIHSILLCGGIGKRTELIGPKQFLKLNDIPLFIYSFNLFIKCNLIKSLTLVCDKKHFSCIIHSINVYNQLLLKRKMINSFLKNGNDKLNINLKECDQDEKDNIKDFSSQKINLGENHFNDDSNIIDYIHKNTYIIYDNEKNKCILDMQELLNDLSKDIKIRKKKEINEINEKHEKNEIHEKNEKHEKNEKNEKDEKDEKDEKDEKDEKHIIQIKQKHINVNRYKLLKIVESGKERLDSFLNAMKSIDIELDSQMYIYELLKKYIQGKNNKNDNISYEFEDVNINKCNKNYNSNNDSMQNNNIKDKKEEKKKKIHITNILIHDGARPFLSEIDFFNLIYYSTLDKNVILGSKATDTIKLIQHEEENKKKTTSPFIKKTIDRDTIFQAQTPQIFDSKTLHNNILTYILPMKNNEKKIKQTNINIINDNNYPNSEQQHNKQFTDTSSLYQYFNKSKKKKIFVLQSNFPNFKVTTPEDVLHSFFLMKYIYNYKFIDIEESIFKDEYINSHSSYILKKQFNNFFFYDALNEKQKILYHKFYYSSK

| SMILES | IC50 [1] | EC50 [2] | cellular level of downstream MEP pathway metabolite CDP-ME (MEP pathway) | cellular level of downstream MEP pathway metabolite cMEPP (MEP pathway) |
| --- | --- | --- | --- | --- |
| O=C(O)c1cccc(-n2sc3ccccc3c2=O)c1 [Compound 46, 3-(3-oxobenzo[d]isothiazol-2(3H)-yl)benzoic acid] | 0.48 µM | > 200 µM | – | – |
| COC(=O)c1cccc(-n2sc3ccccc3c2=O)c1 [Compound 45, Methyl-3-(3-oxobenzo[d]isothiazol-2(3H)-yl)benzoate] | 0.15 µM | 11.7 µM | – | – |
| Cc1nnsc1C(=O)Nc1cc(S(=O)(=O)N2CCCCC2)ccc1O [Compound 19, N-[2-hydroxy-5-(piperidine-1-sulfonyl)phenyl]-4-methyl-1,2,3-thiadiazole-5-carboxamide] | 58.9 µM | > 200 µM | – | – |
| O=c1c2ccccc2sn1-c1cccc(-c2ccc(Cl)cc2)c1 [Compound 43, 2-(4′-chloro-[1,1′biphenyl]-3-yl)benzo[d]isothiazol-3(2H)-one] | 0.16 µM | 0.61 µM | – | – |
| O=c1c2ccccc2sn1-c1cccc(-c2ccc(C(F)(F)F)cc2)c1 [Compound 44, 2-(4′-(trifluoromethyl)-[1,1′biphenyl]-3-yl)benzo[d]isothiazol-3(2H)-one] | 0.31 µM | 0.45 µM | – | – |
| O=c1c2ccccc2sn1-c1cc(S(=O)(=O)N2CCC(F)CC2)ccc1O [Compound 38, 2-(5-((4-fluoropiperidin-1-yl)sulfonyl)-2-hydroxyphenyl)benzo[d]isothiazol-3(2H)-one] | 13.2 µM | 10.1 µM | – | – |
| CSc1ccccc1C(=O)Nc1cccc(S(=O)(=O)N2CCOCC2)c1 [Compound 11, 2-(methylthio)-(N-((3-morpholinosulfonyl)phenyl)benzamide)] | > 200 µM | 82.6 µM | – | – |
| COc1ccc(S(=O)(=O)N2CCCCC2)cc1-n1sc2ccccc2c1=O [Compound 25, 2-(2-methoxy-5-(piperidin-1-ylsulfonyl)phenyl)benzo[d]isothiazol-3(2H)-one] | 0.809 µM | 14.3 µM | – | – |
| O=c1c2ccccc2sn1-c1ccc(S(=O)(=O)N2CCOCC2)cc1 [Compound 4, 1,2-benzisothiazol-3(2H)-one,2-[4-(4-morpholinylsulfonyl)phenyl]] | 30.9 µM | 20.8 µM | – | – |
| O=c1c2cccnc2sn1Cc1ccccc1 [Compound 52, 2-benzylisothiazolo[5,4-b]pyridin-3(2H)-one] | 1.52 µM | – | – | – |
| Cc1ccc(-n2sc3ccccc3c2=O)cc1S(=O)(=O)N1CCOCC1 [Compound 3, 1,2-benzisothiazol-3(2H)-one,2-[4-methyl-3-(4-morpholinylsulfonyl)phenyl]] | 0.506 µM | 4.96 µM | – | – |
| O=c1c2ccccc2sn1-c1cc(S(=O)(=O)N2CCOCC2)ccc1N1CCCC1 [Compound 2, 1,2-benzisothiazol-3(2H)-one,2-[-5-(4-morpholinylsulfonyl)-2-(1-pyrrolidinyl)phenyl]] | 7.26 µM | 17.1 µM | – | – |
| COc1ccc(S(=O)(=O)N2CCOCC2)cc1-n1sc2ccccc2c1=O [Compound 24, 2-(2-methoxy-5-(morpholinosulfonyl)phenyl)benzo[d]isothiazol-3(2H)-one] | 1.08 µM | 8.61 µM | – | – |
| O=c1[nH]sc2ncccc12 [Compound 50, Isothiazolo[5,4-b]pyridin-3(2H)-one] | 56.2 µM | 160 µM | – | – |
| O=c1c2ccccc2sn1-c1cc(S(=O)(=O)N2CCCOCC2)ccc1O [Compound 40, 2-(5-((1,4-oxazepan-4-yl)sulfonyl)-2-hydroxyphenyl)benzo[d]isothiazol-3(2H)-one] | 1.95 µM | 14.6 µM | – | – |
| COc1ccc(S(=O)(=O)N2CCN(C)CC2)cc1-n1sc2ccccc2c1=O [Compound 28, 2-(2-methoxy-5-((4-methylpiperazin-1-yl)sulfonyl)phenyl)benzo[d]isothiazol-3(2H)-one] | 1.95 µM | 2.47 µM | – | – |
| O=c1c2ccccc2sn1-c1cccc(S(=O)(=O)N2CCOCC2)c1 [Compound 10, 2-(3-morpholinosulfonyl)phenylbenzo[d]isothiazol-3(2H)-one] | 0.656 µM | 7.4 µM | – | – |
| O=c1c2ccccc2sn1-c1cc(S(=O)(=O)N2CCCCC2)ccc1O [Compound 39, 2-(2-hydroxy-5-(piperidin-1-ylsulfonyl)phenyl)benzo[d]isothiazol-3(2H)-one] | 5.39 µM | 9.21 µM | – | – |
| COc1ccc(Cn2sc3ccccc3c2=O)cc1 [Compound 51, 2-(4-methoxybenzyl)benzo[d]isothiazol-2(3H)-one] | 1.34 µM | 67.6 µM | – | – |
| COc1ccc(S(=O)(=O)N2CCNCC2)cc1-n1sc2ccccc2c1=O [Compound 36, 2-(2-methoxy-5-(piperazin-1-ylsulfonyl)phenyl)benzo[d]isothiazol-3(2H)-one] | 1.15 µM | 0.97 µM | – | – |
| O=c1c2ccccc2sn1-c1ccccn1 [Compound 47, 2-(pyridin-2-yl)benzo[d]isothiazol-2(3H)-one] | 0.17 µM | 70 µM | – | – |
| O=c1c2ccccc2sn1Cc1ccccc1 [Compound 48, 2-benzylbenzo[d]isothiazol-2(3H)-one] | 2.43 µM | – | – | – |
| COc1ccc(S(=O)(=O)N2CCCOCC2)cc1-n1sc2ccccc2c1=O [Compound 27, 2-(5-((1,4-oxazepan-4-yl)sulfonyl)-2-methoxyphenyl)benzo[d]isothiazol-3(2H)-one] | 0.542 µM | 9.1 µM | – | – |
| COc1ccc(-c2cccc(-n3sc4ccccc4c3=O)c2)cc1 [Compound 41, 2-(4′-methoxy-[1,1′biphenyl]-3-yl)benzo[d]isothiazol-3(2H)-one] | – | 0.77 µM | significantly decreased | significantly decreased |
| O=c1c2ccccc2sn1-c1cc(S(=O)(=O)N2CCOCC2)ccc1O [Compound 37, 2-(2-hydroxy-5-(morpholinosulfonyl)phenyl)benzo[d]isothiazol-3(2H)-one] | 0.71 µM | 7.59 µM | – | – |
| COc1ccc(S(=O)(=O)N2CCC(F)CC2)cc1-n1sc2ccccc2c1=O [Compound 26, 2-(5-((4-fluoropiperidin-1-yl)sulfonyl)-2-methoxyphenyl)benzo[d]isothiazol-3(2H)-one] | 0.866 µM | 6.11 µM | – | – |
| O=c1c2ccccc2sn1-c1cccc(-c2ccsc2)c1 [Compound 42, 2-(3-(thiophen-3-yl)phenyl)benzo[d]isothiazol-3(2H)-one] | 0.29 µM | 2.88 µM | – | – |
| O=c1c2ccccc2sn1Cc1ccc(Cl)cc1 [Compound 49, 2-(4-chlorobenzyl)benzo[d]isothiazol-2(3H)-one] | 0.62 µM | 17.9 µM | – | – |

Reference: US20170136030A1, “TREATMENT OF MALARIA USING INHIBITORS OF THE ISPD ENZYME IN THE NON-MEVALONATE PATHWAY” (Washington University, priority 2014, published 2017)
